The values that follow come from paper PMC6646405, “A quantitative, high-throughput method identifies protein–glycan interactions via mass spectrometry” (Communications Biology, 2019).

One experiment addresses T1, human siglec-2 (CD22) (Homo sapiens, UniProt P20273).
T1 construct: Residues 1–332 of human Siglec-2 (MW 140 kDa, purity > 95%) were cloned in frame with human IgG1 Fc and a C-terminal His6; made in house
T1 sequence (P20273 20-332): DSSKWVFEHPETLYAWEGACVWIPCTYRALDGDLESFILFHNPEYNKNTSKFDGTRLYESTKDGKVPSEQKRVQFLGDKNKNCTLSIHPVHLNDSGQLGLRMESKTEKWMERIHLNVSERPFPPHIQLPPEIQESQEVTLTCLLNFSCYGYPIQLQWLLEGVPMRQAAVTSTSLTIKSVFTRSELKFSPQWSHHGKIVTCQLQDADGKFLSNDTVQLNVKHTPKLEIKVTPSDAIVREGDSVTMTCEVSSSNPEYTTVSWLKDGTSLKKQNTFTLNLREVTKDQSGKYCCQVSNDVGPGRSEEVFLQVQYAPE
Description: CUPRA library screening and affinity, siglec-2. The class given is binding. As to conditions: for average DI: mean of 4 DIi values.

The test system of experiment [1] is family 51 carbohydrate binding module (CBM51). Description: CUPRA library screening and affinity, CBM51. The conditions noted are these: 25uM CBM51; mean of 4 DIi values, FigS3a. Here is the method:
Unless otherwise noted, the measurements were performed at 25 °C. […] We identified specific ligands from the depletion index (DIi, Eq. 1) – the change in the fractional abundance (Fi, Eq. 2) ratio of ligand i-bound and free ^UniPproxy ions upon addition of GBP. Prior to calculating Fi, we treated each mass spectrum with the Sliding Window Adducts Removal Method (SWARM)[18] to remove contributions to the abundance of ^UniPproxy -OS^mod complex ions from adducts, formed by the ESI process, of neighbouring complex ions (Supplementary Fig. 2). Shown in Fig. 2a is a summary of the DIi measured by CUPRA screening of the 66-component library against S4 (50 μM). As expected, the average DIi for this negative control is close to 1.0 (0.99 ± 0.03). In contrast, CUPRA screening against the positive controls produced decreases in DIi for one or more of the library components. […] Application of CUPRA to human CD22, part of an important class of Neu5Ac-binding GBPs implicated in both innate and adaptive immunity, correctly identified HMO08 as a ligand (Supplementary Fig. 4a). CUPRA screening of MAA at high concentration (50 μM) identified HMO03 and GA06 as ligands. […]
Using SWARM-treated mass spectra, DIi was calculated for each ligand from the ratio of the fractional abundances (Fi) of ligand (i)-bound and free ^UniPproxy ions in the presence (+GBP) and absence (-GBP) of GBP, Eqs. […]

For experiment [2], the target named is streptavidin homotetramer (S4) (Streptomyces avidinii, UniProt P22629). Description: CUPRA library screening against negative control streptavidin. The class given is binding. On the set-up: key: ratio change on GBP addition; ~1.0 = no binding (negative control). As to conditions: depletion index, 50 μM streptavidin.
Sequence of streptavidin homotetramer (S4) (P22629 25-183): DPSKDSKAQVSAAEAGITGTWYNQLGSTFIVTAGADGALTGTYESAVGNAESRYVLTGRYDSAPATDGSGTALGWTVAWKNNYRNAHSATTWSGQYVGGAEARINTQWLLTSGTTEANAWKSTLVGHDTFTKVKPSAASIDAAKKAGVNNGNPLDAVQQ

For `CC(=O)N[C@H]1[C@H](O[C@@H]2[C@H](O[C@]3(C(=O)O)C[C@H](O)[C@@H](NC(C)=O)[C@H]([C@H](O)[C@@H](CO)O[C@]4(C(=O)O)C[C@H](O)[C@@H](NC(C)=O)[C@H]([C@H](O)[C@H](O)CO)O4)O3)[C@@H](O)[C@H](O[C@H]3[C@H](O)[C@@H](O)[C@H](N(CCOCCOCCNC(=O)[C@H](Cc4ccccc4)NC(=O)[C@H](Cc4ccccc4)NC(=O)CCCC(=O)NCCc4ccc(S(N)(=O)=O)cc4)C(C)=O)O[C@@H]3CO)O[C@@H]2CO)O[C@H](CO)[C@H](O)[C@@H]1O` [GA10, GalNAcβ1-4(Neu5Acα2-8 Neu5Acα2-3)Galβ1-4Glc-CL], the “average DI” value at human siglec-2 (CD22) (25uM CD22) came to 0.9974; at human siglec-2 (CD22) (25uM CD22 at 0C) it was 0.9401; in experiment [1], 0.9576; in experiment [2] (mean of 4), 0.9828. Moreover, the “DIi(25uM CD22)” value came out at 0.9925 at human siglec-2 (CD22) (25uM CD22, replicate column 1 of 4); 1.005 at human siglec-2 (CD22) (25uM CD22, replicate column 2 of 4); 0.9899 on human siglec-2 (CD22) (25uM CD22, replicate column 3 of 4); 1.002 at human siglec-2 (CD22) (25uM CD22, replicate column 4 of 4). Besides, the “DIi(25uM CD22 at 0C)” value at human siglec-2 (CD22) (25uM CD22 at 0C, replicate column 1 of 4) is listed as 0.9406; on human siglec-2 (CD22) (25uM CD22 at 0C, replicate column 2 of 4), 0.9609; on human siglec-2 (CD22) (25uM CD22 at 0C, replicate column 3 of 4), 0.9196; at human siglec-2 (CD22) (25uM CD22 at 0C, replicate column 4 of 4), 0.9395. The “DIi(50uM S4)” value in experiment [2] (measurement 1 of 4) is listed as 0.9829; in experiment [2] (measurement 2 of 4), 0.9821; in experiment [2] (measurement 3 of 4), 0.9835; in experiment [2] (measurement 4 of 4) it was 0.9826.
